From paper PMC10820135, “Pharmacokinetic, Tissue Distribution, Metabolite, and Toxicity Evaluation of the Matrine Derivative, (6aS, 10S, 11aR, 11bR, 11cS)-10-Methylaminododecahydro-3a, 7a-Diaza-benzo (de) Anthracene-8-thione” (Molecules, 2024) come the findings set out here.

The data set in a line: Tissue distribution of MASM in rats. In kind it is in vivo, Sprague-Dawley rats. To be noted: rat. The procedure:
UHPLC analysis was performed using a Thermo Accela AS system, employing an ACQUITY UPLC®BEH C18 (Waters Corporation, Wexfords, Ireland) (1.7 µm, 2.1 × 100 mm) column and a binary solvent system consisting of water containing 0.1% formic acid as mobile phase A and acetonitrile as mobile phase B. For pharmacokinetic evaluation, the gradient elution was set as follows: 97% A from 0 to 2 min, 97–70% A from 2 to 3 min, 70–20% A from 3 to 3.5 min, 20% A from 3.5 to 3.6 min, 20–97% A from 3.6 to 3.7 min, and 97% A from 3.7 to 5 min. For the metabolic test, the gradient elution in full scan mode was set as follows: 97% A from 0 to 2 min, 97–70% A from 2 to 4 min, 70–20% A from 4 to 6 min, 20% A from 6 to 7 min, 20–97% A from 7 to 8 min, and 97% A from 8 to 10 min. The flow rate was 0.2 mL/min, with a temperature of 40 °C maintained and an injection volume of 5 μL. The QQQ-MS/MS analysis was conducted using a Thermo TSQ QUANTUM ACCESS MAX system equipped with an electrospray ionization (ESI) source. The spray voltages were set at 4.0 kV and 2.5 kV for positive and negative ion modes, respectively; capillary and vaporizer temperatures were 320 °C and 350 °C, respectively; sheath and aux gas pressures were 35 and 10 psi, respectively.
A total of 36 Sprague-Dawley rats (18 male and 18 female) were randomly and equally assigned to 6 groups, with 3 male and 3 female rats in each group. Among these groups, 3 groups were administrated MASM intragastrically at a dosage of 60 mg/kg, while the remaining 3 groups received intraperitoneal administration of MASM at a dosage of 80 mg/kg. The rats in each group were euthanized at three different time points: 1 h, 2 h, and 24 h after administration. Subsequently, various tissues, including the heart, liver, spleen, lung, kidney, stomach, muscle, and brain, were promptly collected and weighed. These tissues were then homogenized using acetonitrile at a ratio of 1:10 and stored at a temperature of −80 °C until further analysis. During the analysis of the tissue sample, the protein was precipitated following the tissues: acetonitrile with a ratio of 1:3 and a volume of 5μL of the resulting supernatant were injected. The UHPLC-QQQ-MS/MS analysis method that was developed, underwent a comprehensive validation process, and the concentration of MASM in each tissue was determined using linear regression equations. Bar graphs were generated by applying Prism 8.0 (GraphPad Software Inc., San Diego, CA, USA).

“Also recorded” adds a separate entry of the source.

Take `CNC1CC(=S)N2CC3CCCN4CCCC(C34)C2C1` [MASM, (6aS, 10S, 11aR, 11bR, 11cS)-10-methylaminododecahydro-3a, 7a-diaza-benzo (de) anthracene-8-thione]: the “tissues with concentration surpassing other organs at 1 h” value (following the initial hour) was “liver, kidney, and intestine”. Moreover, the “time at which Cmax in liver tissue was achieved” value (i.g. 60 mg/kg and i.p. 80 mg/kg) is given as at most 1 h. Moreover, where the note is “i.g. 60 mg/kg or i.p. 80 mg/kg”, the “tissue with higher concentration than other organs at 2 h and 24 h” value was “spleen and intestine”. Besides, the “tissues of main distribution / higher accumulation” value (i.g. 60 mg/kg or i.p. 80 mg/kg, 1, 2, 24 h) is “primarily distributed in the liver, kidney, and spleen tissues”. For the same compound, the detection in tissues result (heart, liver, spleen, lung, kidney, brain, muscle, intestine, stomach) was “detected in all rat tissues including the brain; also recorded: detected in various tissues at 1, 2, and 24 h after administration”.
